Source: patent US12122763B2, “Substituted piperidines for androgen receptor degradation” (UBIX THERAPEUTICS, INC., priority 2020, dated 2024)

Target: T1, Androgen Receptor (AR) protein (Homo sapiens, UniProt P10275, T878A)
T1 construct: endogenous in cells; host or cells: LNCaP
Experiment: Androgen Receptor (AR) protein degradation assay in LNCaP cells, western blotting
Format: cell-based
Details: 20 h; for inhibition at 0.01 µM: 0.01 μM compound; for inhibition at 0.1 µM: 0.1 μM compound; for inhibition at 1 µM: 1 μM compound; for inhibition at 10 µM: 10 μM compound
Outline: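 LNCaP prostate cancer cells were cultured 3 days, then treated with compound for 20 h. Lysates in 1% SDS buffer were normalised by BCA, and 8 μg protein was run on 4–12% Bis-Tris gels. AR was immunoblotted with chemiluminescence, using GAPDH/β-actin as loading controls.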

T1 sequence (P10275 whole entry T878A): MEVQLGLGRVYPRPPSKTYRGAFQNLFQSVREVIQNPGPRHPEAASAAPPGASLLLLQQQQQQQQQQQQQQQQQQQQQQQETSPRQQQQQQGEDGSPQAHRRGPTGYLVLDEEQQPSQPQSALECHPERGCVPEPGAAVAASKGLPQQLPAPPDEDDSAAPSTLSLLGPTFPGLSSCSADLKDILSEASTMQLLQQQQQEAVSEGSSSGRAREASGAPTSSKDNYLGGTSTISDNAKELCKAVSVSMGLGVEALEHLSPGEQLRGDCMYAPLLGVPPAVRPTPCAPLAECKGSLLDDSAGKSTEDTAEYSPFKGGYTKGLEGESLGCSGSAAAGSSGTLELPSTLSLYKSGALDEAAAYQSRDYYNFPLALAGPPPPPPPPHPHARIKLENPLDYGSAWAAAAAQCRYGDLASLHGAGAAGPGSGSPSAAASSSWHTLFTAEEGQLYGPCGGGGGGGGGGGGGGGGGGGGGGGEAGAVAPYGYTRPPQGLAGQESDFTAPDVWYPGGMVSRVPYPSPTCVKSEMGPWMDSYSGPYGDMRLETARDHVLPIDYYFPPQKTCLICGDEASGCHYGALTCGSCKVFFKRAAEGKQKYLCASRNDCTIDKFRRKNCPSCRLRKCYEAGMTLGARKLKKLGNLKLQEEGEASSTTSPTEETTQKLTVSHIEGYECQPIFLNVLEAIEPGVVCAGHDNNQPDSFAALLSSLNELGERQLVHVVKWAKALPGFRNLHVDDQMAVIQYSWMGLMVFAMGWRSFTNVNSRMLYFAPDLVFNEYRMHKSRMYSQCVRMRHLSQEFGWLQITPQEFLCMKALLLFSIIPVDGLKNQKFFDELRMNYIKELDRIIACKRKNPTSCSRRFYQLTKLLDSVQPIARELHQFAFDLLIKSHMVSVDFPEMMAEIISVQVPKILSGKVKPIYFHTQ
T1 sequence (Q96SW2 whole entry partner): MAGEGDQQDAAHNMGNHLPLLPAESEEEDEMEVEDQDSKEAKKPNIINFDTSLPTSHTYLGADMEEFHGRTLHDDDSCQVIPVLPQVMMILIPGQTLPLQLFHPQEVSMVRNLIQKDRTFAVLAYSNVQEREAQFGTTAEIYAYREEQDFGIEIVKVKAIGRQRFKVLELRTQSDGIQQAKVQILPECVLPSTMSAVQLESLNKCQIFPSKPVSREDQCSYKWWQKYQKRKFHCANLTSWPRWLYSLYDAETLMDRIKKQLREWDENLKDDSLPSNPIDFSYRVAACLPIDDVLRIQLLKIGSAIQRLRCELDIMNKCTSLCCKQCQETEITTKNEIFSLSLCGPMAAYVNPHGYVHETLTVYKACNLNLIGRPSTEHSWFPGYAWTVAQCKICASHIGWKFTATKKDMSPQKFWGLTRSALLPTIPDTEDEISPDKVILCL

Structure (SMILES) | inhibition at 0.01 µM | inhibition at 0.1 µM | inhibition at 1 µM | inhibition at 10 µM
C[C@@H]1CN(C2CCN(c3ccc4c(n3)CN(C3CCC(=O)NC3=O)C4=O)CC2)CCN1CC1CCN(c2ccc(NC(=O)C3CCN(c4ccc(C#N)c(C(F)(F)F)c4)CC3)nc2)CC1 (stereo partly drawn) [Example 43, 1-(4-cyano-3-(trifluoromethyl)phenyl)-N-(5-(4-(((2R)-4-(1-(6-(2,6-dioxopiperidin-3-yl)-5-oxo-6,7-dihydro-5H-pyrrolo[3,4-b]pyridin-2-yl)piperidin-4-yl)-2-methylpiperazin-1-yl)methyl)piperidin-1-yl)pyridin-2-yl)piperidine-4-carboxamide] | 68% | 94% | 83% | –
N#Cc1ccc(N2CCC(C(=O)Nc3ccc(N4CCC(CN5CCN(C(=O)CNc6ccc7c(c6)C(=O)N(C6CCC(=O)NC6=O)C7=O)CC5)CC4)cn3)CC2)cc1C(F)(F)F (stereo not shown) [Example 5, 1-(4-cyano-3-(trifluoromethyl)phenyl)-N-(5-(4-((4-((2-(2,6-dioxopiperidin-3-yl)-1,3-dioxoisoindolin-5-yl)glycyl)piperazin-1-yl)methyl)piperidin-1-yl)pyridin-2-yl)piperidine-4-carboxamide] | 82% | 97% | 97% | 97%
N#Cc1ccc(N2CCC(C(=O)Nc3ccc(N4CCC5(CC4)CN(CC4CN(c6ccc7c(c6)C(=O)N(C6CCC(=O)NC6=O)C7=O)C4)C5)cn3)CC2)cc1C(F)(F)F (stereo not shown) [Example 128, 1-(4-cyano-3-(trifluoromethyl)phenyl)-N-(5-(2-((1-(2-(2,6-dioxopiperidin-3-yl)-1,3-dioxoisoindolin-5-yl)azetidin-3-yl)methyl)-2,7-diazaspiro[3.5]nonan-7-yl)pyridin-2-yl)piperidine-4-carboxamide] | 28% | 43% | 61% | –
N#Cc1ccc(N2CCC(C(=O)Nc3ccc(N4CCC(CN5CCN(CC6CCN(c7ccc8c(c7)CN(C7CCC(=O)NC7=O)C8=O)CC6)CC5)CC4)cn3)CC2)cc1C(F)(F)F (stereo not shown) [Example 143, 1-(4-cyano-3-(trifluoromethyl)phenyl)-N-(5-(4-((4-((1-(2-(2,6-dioxopiperidin-3-yl)-1-oxoisoindolin-5-yl)piperidin-4-yl)methyl)piperazin-1-yl)methyl)piperidin-1-yl)pyridin-2-yl)piperidine-4-carboxamide] | 73% | 97% | 97% | –
N#Cc1ccc(N2CCC(C(=O)Nc3ccc(N4CCN(CCOC5CCN(c6ccc7c(c6)C(=O)N(C6CCC(=O)NC6=O)C7=O)CC5)CC4)cn3)CC2)cc1Cl (stereo not shown) [Example 118, 1-(3-chloro-4-cyanophenyl)-N-(5-(4-(2-((1-(2-(2,6-dioxopiperidin-3-yl)-1,3-dioxoisoindolin-5-yl)piperidin-4-yl)oxy)ethyl)piperazin-1-yl)pyridin-2-yl)piperidine-4-carboxamide] | 34% | 62% | 88% | –
N#Cc1ccc(N2CCC(C(=O)Nc3ccc(N4CCC(CN5CCN(C6CCN(c7ccc8c(c7)C(=O)N(C7CCC(=O)NC7=O)C8=O)CC6)CC5)CC4)cn3)CC2)cc1Cl (stereo not shown) [Example 71, 1-(3-chloro-4-cyanophenyl)-N-(5-(4-((4-(1-(2-(2,6-dioxopiperidin-3-yl)-1,3-dioxoisoindolin-5-yl)piperidin-4-yl)piperazin-1-yl)methyl)piperidin-1-yl)pyridin-2-yl)piperidine-4-carboxamide] | 75% | 97% | 98% | 98%
N#Cc1ccc(N2CCC(C(=O)Nc3ccc(N4CCC(CN5CC6(CCN(c7ccc8nnn(C9CCC(=O)NC9=O)c(=O)c8c7)CC6)C5)CC4)cn3)CC2)cc1C(F)(F)F (stereo not shown) [Example 53, 1-(4-cyano-3-(trifluoromethyl)phenyl)-N-(5-(4-((7-(3-(2,6-dioxopiperidin-3-yl)-4-oxo-3,4-dihydrobenzo[d][1,2,3]triazin-6-yl)-2,7-diazaspiro[3.5]nonan-2-yl)methyl)piperidin-1-yl)pyridin-2-yl)piperidine-4-carboxamide] | 27% | 89% | 93% | –
N#Cc1ccc(N2CCC(C(=O)Nc3ccc(N4CCC(OCCN5CCN(c6ccc7c(c6)C(=O)N(C6CCC(=O)NC6=O)C7=O)CC5)CC4)cn3)CC2)cc1C(F)(F)F (stereo not shown) [Example 150, 1-(4-cyano-3-(trifluoromethyl)phenyl)-N-(5-(4-(2-(4-(2-(2,6-dioxopiperidin-3-yl)-1,3-dioxoisoindolin-5-yl)piperazin-1-yl)ethoxy)piperidin-1-yl)pyridin-2-yl)piperidine-4-carboxamide] | 55% | 97% | 99% | –
N#Cc1ncc(N2CCC(C(=O)Nc3ccc(N4CCC(CCN5CCN(c6ccc7c(c6)C(=O)N(C6CCC(=O)NC6=O)C7=O)CC5)CC4)cn3)CC2)cc1C(F)(F)F (stereo not shown) [Example 89, 1-(6-cyano-5-(trifluoromethyl)pyridin-3-yl)-N-(5-(4-(2-(4-(2-(2,6-dioxopiperidin-3-yl)-1,3-dioxoisoindolin-5-yl)piperazin-1-yl)ethyl)piperidin-1-yl)pyridin-2-yl)piperidine-4-carboxamide] | 35% | 73% | 91% | –
N#Cc1ccc(N2CCC(C(=O)Nc3ccc(N4CCC(CN5CCN(c6ccc7c(c6)C(=O)N(C6CCC(=O)NC6=O)C7=O)CC5)CC4)cn3)CC2)cc1Cl (stereo not shown) [Example 2, 1-(3-chloro-4-cyanophenyl)-N-(5-(4-((4-(2-(2,6-dioxopiperidin-3-yl)-1,3-dioxoisoindolin-5-yl)piperazin-1-yl)methyl)piperidin-1-yl)pyridin-2-yl)piperidine-4-carboxamide] | -9% | 68% | 97% | 96%
N#Cc1ccc(N2CCC(C(=O)Nc3ccc(CCN4CCC(CN5CCN(c6cc7c(cc6F)C(=O)N(C6CCC(=O)NC6=O)C7=O)CC5)CC4)cn3)CC2)cc1C(F)(F)F (stereo not shown) [Example 189, 1-(4-cyano-3-(trifluoromethyl)phenyl)-N-(5-(2-(4-((4-(2-(2,6-dioxopiperidin-3-yl)-6-fluoro-1,3-dioxoisoindolin-5-yl)piperazin-1-yl)methyl)piperidin-1-yl)ethyl)pyridin-2-yl)piperidine-4-carboxamide] | 8% | 79% | – | –
C[C@@H]1CN(C2CCN(c3ccc4c(c3)C(=O)N(C3CCC(=O)NC3=O)C4=O)CC2)CCN1CC1CCN(c2ccc(NC(=O)C3CCN(c4ccc(C#N)c(C(F)(F)F)c4)CC3)nc2)CC1 (stereo partly drawn) [Example 42, 1-(4-cyano-3-(trifluoromethyl)phenyl)-N-(5-(4-(((2R)-4-(1-(2-(2,6-dioxopiperidin-3-yl)-1,3-dioxoisoindolin-5-yl)piperidin-4-yl)-2-methylpiperazin-1-yl)methyl)piperidin-1-yl)pyridin-2-yl)piperidine-4-carboxamide] | 65% | 96% | 94% | –
N#Cc1ccc(N2CCC(C(=O)Nc3ccc(N4CCC(CN5CCC6(CC5)CCN(c5ccc7c(c5)C(=O)N(C5CCC(=O)NC5=O)C7=O)CC6)CC4)cn3)CC2)cc1C(F)(F)F (stereo not shown) [Example 68, 1-(4-cyano-3-(trifluoromethyl)phenyl)-N-(5-(4-((9-(2-(2,6-dioxopiperidin-3-yl)-1,3-dioxoisoindolin-5-yl)-3,9-diazaspiro[5.5]undecan-3-yl)methyl)piperidin-1-yl)pyridin-2-yl)piperidine-4-carboxamide] | 66% | 91% | 90% | 85%
C[C@@H]1CN(CC2CCN(c3ccc(NC(=O)C4CCN(c5ccc(C#N)c(C(F)(F)F)c5)CC4)nc3)CC2)CCN1C1CN(c2ccc3c(c2)C(=O)N(C2CCC(=O)NC2=O)C3=O)C1 (stereo partly drawn) [Example 40, 1-(4-cyano-3-(trifluoromethyl)phenyl)-N-(5-(4-(((3R)-4-(1-(2-(2,6-dioxopiperidin-3-yl)-1,3-dioxoisoindolin-5-yl)azetidin-3-yl)-3-methylpiperazin-1-yl)methyl)piperidin-1-yl)pyridin-2-yl)piperidine-4-carboxamide] | 43% | 94% | 94% | –
N#Cc1ccc(N2CCC(C(=O)Nc3ccc(N4CCC(CN5CC6(CCN(c7ccc8c(c7)C(=O)N(C7CCC(=O)NC7=O)C8=O)CC6)C5)CC4)cn3)CC2)cc1Cl (stereo not shown) [Example 50, 1-(3-chloro-4-cyanophenyl)-N-(5-(4-((7-(2-(2,6-dioxopiperidin-3-yl)-1,3-dioxoisoindolin-5-yl)-2,7-diazaspiro[3.5]nonan-2-yl)methyl)piperidin-1-yl)pyridin-2-yl)piperidine-4-carboxamide] | 61% | 97% | 99% | 98%
C[C@@H]1CN(CC2CN(c3ccc4c(c3)C(=O)N(C3CCC(=O)NC3=O)C4=O)C2)CCN1CC1CN(c2ccc(NC(=O)C3CCN(c4ccc(C#N)c(C(F)(F)F)c4)CC3)nc2)C1 (stereo partly drawn) [Example 31, 1-(4-cyano-3-(trifluoromethyl)phenyl)-N-(5-(3-(((2R)-4-((1-(2-(2,6-dioxopiperidin-3-yl)-1,3-dioxoisoindolin-5-yl)azetidin-3-yl)methyl)-2-methylpiperazin-1-yl)methyl)azetidin-1-yl)pyridin-2-yl)piperidine-4-carboxamide] | 67% | 99% | 97% | –
N#Cc1ccc(N2CCC(C(=O)Nc3ccc(N4CCC(CCN5CC6(CCN(c7ccc8c(c7)C(=O)N(C7CCC(=O)NC7=O)C8=O)CC6)C5)CC4)cn3)CC2)cc1C(F)(F)F (stereo not shown) [Example 94, 1-(4-cyano-3-(trifluoromethyl)phenyl)-N-(5-(4-(2-(7-(2-(2,6-dioxopiperidin-3-yl)-1,3-dioxoisoindolin-5-yl)-2,7-diazaspiro[3.5]nonan-2-yl)ethyl)piperidin-1-yl)pyridin-2-yl)piperidine-4-carboxamide] | 75% | 98% | 98% | –
